# Experimental data from article PMC10746280, “Bacterial efflux pump modulators prevent bacterial growth in macrophages and under broth conditions that mimic the host environment” (mBio, 2023).
# Where two headings read alike, the source gives them in different places.
# Key:
# [1] = molecular target: T1, E. coli AcrB (Escherichia coli, UniProt P31224); assay: Isothermal titration calorimetry (ITC) binding to purified AcrB
# T1 construct: 4xHis (C); made in house; host or cells: E. coli BL21-Gold (DE3), plasmid derived from pSPORT1
# Text: We selected three compounds for further study, CU032, CU232, and CU244, because they incorporated different aspects of the parent structure, specifically the negative atoms on the benzene ring and the amine on opposite side of the molecule. To determine whether the EPMs could bind AcrB, we used purified E. coli AcrB, which is 95% identical to S. enterica Typhimurium AcrB. […] Here, we show with ITC that, like EPM35, the three analogs are capable of specifically interacting with AcrB to form complexes (Fig. S1; Table 1). Curiously, the analogs have KDs that are 25- to 50-fold larger than that of EPM35. […] Thus, the EPM analogs interact specifically with AcrB in a manner consistent with established EPM substrates.
# AcrB protein was purified as described ([25]). Briefly, the AcrB protein contains a 4×His tag at the C-terminus and was overproduced in E. coli BL21-Gold (DE3) cells (Stratagene) using the plasmid derived from pSPORT1 (Invitrogen) ([79]). Cells were grown in 6 L of LB medium with 100 µg/mL ampicillin and disrupted with a French pressure cell. The membrane fraction was collected and washed twice with buffer containing 20 mM sodium phosphate (pH 7.2), 2 M KCl, 10% glycerol, 1 mM EDTA, and 1 mM phenylmethanesulfonyl fluoride (PMSF), and once with 20 mM HEPES–NaOH buffer (pH 7.5) containing 1 mM PMSF. The membrane proteins were then solubilized in 1% (wt/vol) n-dodecyl β-D-maltoside (DDM). Insoluble material was removed by ultracentrifugation at 370,000 × g. The extracted protein was purified with Cu^2+-affinity and G-200 sizing columns ([13], [80]). The purified AcrB protein was then concentrated to a final monomeric concentration of 10 µM in buffer containing 20 mM Na-HEPES (pH 7.5) and 0.05% DDM. Similar protein purification procedures were extensively used to elucidate structure-function of RND transporters, including AcrB ([13], [16], [25]), CusA ([81], [82]), MtrD ([83], [84]), CmeB ([85]), AdeB ([86]), HpnN ([87]), and MmpL3 ([88]).
# Briefly, measurements were performed on a Microcal iTC200 (Malvern Panalytical) at 25°C. Before titration, the protein was dialyzed against buffer containing 20 mM Na-HEPES (pH 7.5), 0.05% […] (DDM), and 5% DMSO ([18]). The Bradford assay was used to quantify protein concentration, which was adjusted to a final monomeric concentration of 10 µM. Ligand solution consisting of 100 µM EPM in the aforementioned buffer was prepared as the titrant. Both the protein and ligand samples were degassed before loading the samples. Two-microliter injections of the ligand were used for data collection. Injections occurred at intervals of 60 s and lasted for 4 s. Heat transfer (µcal/s) was measured as a function of elapsed time (s). The mean enthalpies measured from injection of the ligand in the buffer were subtracted from raw titration data before data analysis with ORIGIN software (MicroCal). Titration curves fitted with a non-linear regression fitting to the binding isotherm provided the equilibrium binding constant (KA = 1/KD) and enthalpy of binding (ΔH). Based on the values of KA, the change in free energy (ΔG) and entropy (ΔS) were calculated with the equation ΔG = −RT lnKA = ΔH − TΔS, where T is […] and R is 1.9872 cal/K per mol. Calorimetry trials were also carried out in the absence of AcrB using the same experimental conditions.
# [2] = test system: E. coli ΔtolC mutant; assay: Growth (OD600) of ΔtolC mutant in LPM 5.5; type: cell-based
# Text: (§1) LPM 5.5 is chemically defined, contains low phosphate and low magnesium, and is buffered to pH 5.5 ([34], [39][–][41]). […] It was further noted that mutant strains lacking acrAB or tolC grow poorly in LPM 5.5 compared to the corresponding wild type (Fig. 5C through F).
# (§2) Fig 5 In LPM pH 5.5, acrAB and tolC are required for growth, and EPM analogs inhibit growth. (A and B) Optical density at 600 nm (OD600) and CFU per milliliter of S. Typhimurium in LPM 5.5 (at pH 5.5) or LPM 7 (at pH 7.0) in the presence of CU032. (C through F) OD600 in LPM 5.5 of (C and E) S. Typhimurium ΔacrAB mutant and wild-type strains, and (D and F) E. coli ΔtolC mutant and wild-type strains with (C, D) CU032 or (E and F) EPM35. Mean and SEM of three biological replicates are shown for A–F. The wild-type and mutant strain controls are the same for C and E and for D and F.
# [3] = test system: S. Typhimurium ΔacrAB mutant; assay: Growth (OD600) of ΔacrAB mutant in LPM 5.5; type: cell-based
# Text: as §1, §2
# [4] = molecular target: T1, E. coli AcrB; design: method as in PMID 29879224; conditions: ITC; previously reported; cited from earlier work
# [5] = test system: S. Typhimurium; assay: Bacterial growth (OD600, CFU/mL) in LPM medium; type: cell-based
# Text: as §1, §2
# Bacteria were grown in LB at 37°C ([76], [77]), unless otherwise stated. Cation-adjusted MHB was purchased from Sigma-Aldrich (90922). LPM 5.5 medium was made according to the following recipe: 5 mM KCl, 7.5 mM (NH4)2SO4, 0.5 mM K2SO4, 10 mM glucose, 49 µM MgCl2, 337 µM PO4-, 0.05% casamino acids (CAS)-amino acids, 80 mM MES, adjusted to pH to 5.5 with 5 M NaOH, and sterile filtered. Where stated, bacteria were grown with antibiotics: 30 µg/mL streptomycin.
# T1 sequence (P31224 whole entry): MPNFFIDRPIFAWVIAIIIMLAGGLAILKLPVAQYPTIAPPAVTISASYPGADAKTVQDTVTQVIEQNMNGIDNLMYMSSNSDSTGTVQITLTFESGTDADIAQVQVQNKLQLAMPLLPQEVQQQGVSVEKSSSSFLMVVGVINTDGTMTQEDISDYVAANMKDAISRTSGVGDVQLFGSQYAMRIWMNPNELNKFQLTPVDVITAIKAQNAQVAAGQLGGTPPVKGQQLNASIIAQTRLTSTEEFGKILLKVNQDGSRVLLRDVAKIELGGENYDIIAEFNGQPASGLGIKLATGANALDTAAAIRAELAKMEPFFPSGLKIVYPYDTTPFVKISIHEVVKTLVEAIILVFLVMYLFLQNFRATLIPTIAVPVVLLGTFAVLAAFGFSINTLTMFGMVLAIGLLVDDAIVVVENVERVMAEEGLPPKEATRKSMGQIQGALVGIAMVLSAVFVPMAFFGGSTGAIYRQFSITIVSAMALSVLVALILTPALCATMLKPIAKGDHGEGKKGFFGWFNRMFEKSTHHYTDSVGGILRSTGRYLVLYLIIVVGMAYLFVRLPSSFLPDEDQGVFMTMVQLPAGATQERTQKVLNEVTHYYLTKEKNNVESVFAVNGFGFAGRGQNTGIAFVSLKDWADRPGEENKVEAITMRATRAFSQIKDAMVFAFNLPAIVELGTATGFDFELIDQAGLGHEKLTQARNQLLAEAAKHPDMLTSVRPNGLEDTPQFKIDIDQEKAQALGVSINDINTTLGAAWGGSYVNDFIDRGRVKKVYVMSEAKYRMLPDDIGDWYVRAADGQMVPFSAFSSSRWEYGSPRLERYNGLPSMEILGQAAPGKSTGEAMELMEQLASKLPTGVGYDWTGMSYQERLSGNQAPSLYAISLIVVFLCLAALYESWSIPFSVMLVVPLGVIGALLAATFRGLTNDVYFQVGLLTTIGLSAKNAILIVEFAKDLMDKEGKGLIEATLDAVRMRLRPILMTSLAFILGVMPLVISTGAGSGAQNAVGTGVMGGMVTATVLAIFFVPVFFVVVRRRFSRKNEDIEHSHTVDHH
SMILES,∆H [1],∆S [1],growth inhibition of ΔtolC mutant compared to DMSO [2],growth inhibition of ΔacrAB mutant compared to DMSO [3],KD [4],∆H [4],∆S [4],nature of inhibitory activity (CFU per milliliter) ([5]; LPM 5.5),growth inhibition in LPM 5.5 ([5]; pH 5.5),growth inhibitory activity in LPM at pH 7.0 ([5]; pH 7.0)
NC1CCN(CC(O)COc2cccc(C(F)(F)F)c2)CC1 (stereo not shown) [CU232],"−2,124 ± 93 cal/mol",16.30 cal/(mol deg),,,,,,,,
OC(COc1ccc(Cl)c(Cl)c1)CN1CCC(Nc2nccc(C(F)(F)F)n2)CC1 (stereo not shown) [EPM35],,,does not strongly inhibit growth,does not strongly inhibit growth,sub-micromolar range,"−7,663 ± 84 cal/mol",4.2 cal/(mol deg),,,
NC1CCN(CC(O)COc2ccc(Cl)c(Cl)c2)C1 (stereo not shown) [CU032],"−1,947 ± 490 cal/mol",15.60 cal/(mol deg),does not strongly inhibit growth,does not strongly inhibit growth,,,,"bacteriostatic, not bactericidal",prevented bacterial growth,abolished
OC(CN[C@H]1[C@@H]2CNC[C@@H]21)COc1cc(Cl)cc(Cl)c1 (stereo partly shown) [CU244],"−8,654 ± 1,384 cal/mol",−6.91 cal/(mol deg),,,,,,,,
